Measured values reported in patent publication US20110071197A1, “BIS-ARYL COMPOUNDS FOR USE AS MEDICAMENTS” (priority 2008, published 2011).

These compounds were tested against T1, Recombinant human LTC4 synthase (Homo sapiens, UniProt Q16873) (assay: LTC4 synthase in vitro assay (HTRF detection of LTC4)). Details: compound concentration 1 μM; HTRF method.
T1 construct: made in house; host or cells: Pichia pastoris
T1 sequence (Q16873 1-150): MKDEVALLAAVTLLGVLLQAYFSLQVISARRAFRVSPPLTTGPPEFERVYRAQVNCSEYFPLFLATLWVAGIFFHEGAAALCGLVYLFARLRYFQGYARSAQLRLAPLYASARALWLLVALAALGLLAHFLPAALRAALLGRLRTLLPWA
Assay type: biochemical
Summary of the method: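 Pichia-expressed recombinant human LTC4 synthase at 0.5 μg/ml total protein in PBS pH 7.4 with 5 mM GSH, preincubated 10 min at RT with inhibitor (10 μM final). LTA4 (2.5 μM final) was then added for 5 min at RT. LTC4 formed was read by HTRF.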

Row | SMILES | % inh.
1 | O=C(Cc1ccc(Cl)cc1)Nc1ccc(Oc2ccc(NC(=O)c3ccc(C(F)(F)F)cc3)c(C(=O)O)c2)cc1 [8:7, 5-[(4-(2-(4-chlorophenyl)acetyl-amino)phenoxy)]-2-(4-trifluoro-methylbenzoylamino)benzoic acid] | 64 (1 μM) %

Same assay, conditions: total concentration of title compound in the assay 10 μM; HTRF method

Row | SMILES | inhibition at 10 µM | % inh.
2 | O=C(Nc1ccc(Oc2ccc(S(=O)(=O)Nc3ccc(F)c(F)c3)cc2)cc1C(=O)O)c1ccc(Cl)cc1Cl [25:4, 2-(2,4-Dichlorobenzoylamino)-5-[4-(3,4-difluorophenylsulfamoyl)-phenoxy]benzoic acid] | 100% | 
3 | O=C(O)Cc1cc(Oc2ccc(NC(=O)c3ccc(C(F)(F)F)cc3F)c(C(=O)O)c2)ccc1NC(=O)c1cccc(Cl)c1 [6:4, 5-[3-carboxymethyl-4-(3-chloro-benzoylamino)-phenoxy]-2-(2-fluoro-4-trifluoromethylbenzoyl-amino)benzoic acid] | 96% | 
4 | CC(C)Oc1ccc(C(=O)Nc2ccc(Oc3ccc(NC(=O)c4ccccc4)cc3)cc2CC(=O)O)cc1 [17:3, [5-(4-benzoylamino-phenoxy)-2-(4-isopropoxy-benzoyl-amino)-phenyl]-acetic acid] | 87% | 
5 | Cc1nc(C(F)(F)F)ccc1C(=O)Nc1ccc(Oc2ccc(NS(=O)(=O)c3cc(Cl)cc(Cl)c3O)c(C(=O)O)c2)cc1 [21:2, 2-(3,5-Dichloro-2-hydroxy-benzene-sulfonylamino)-5-{4-[(2-methyl-6-trifluoromethyl-pyridine-3-carbonyl)-amino]-phenoxy}-benzoic acid] | 98% | 
6 | O=C(O)Cc1cc(Oc2ccc(NC(=O)c3ccc(C(F)(F)F)cc3F)c(C(=O)O)c2)ccc1NC(=O)c1cc(Cl)ccc1O [6:2, 5-[3-carboxymethyl-4-(5-chloro-2-hydroxybenzoylamino)-phenoxy]-2-(2-fluoro-4-trifluoromethyl-benzoylamino)benzoic acid] | 98% | 
7 | CCCCc1ccc(C(=O)Nc2ccc(Oc3ccc(NC(=O)c4ccccc4)c(C(=O)O)c3)cc2C(=O)O)cc1 [5:1, 5-[3-carboxy-4-(4-butylbenzamido)-phenyloxy]-2-benzamidobenzoic acid] | 100% | 
8 | CCCCc1ccc(C(=O)Nc2cccc(Oc3ccc(NC(=O)c4ccc(OC(F)(F)F)cc4)c(C(=O)O)c3)c2)cc1 [10:2, 5-[(3-(4(1-butyl)benzoylamino)-phenoxy)]-2-(4-trifluoromethoxy-benzoylamino)benzoic acid] | 88% | 
9 | O=C(O)c1cc(Sc2ccc(NS(=O)(=O)c3ccc(Cl)cc3)cc2)ccc1NS(=O)(=O)c1ccc(Cl)cc1 [14:4, 2-(4-chloro-benzenesulfonyl-amino)-5-[4-(4-chloro-benzenesulfonylamino)-phenylsulfanyl]-benzoic acid] | 100% | 
10 | CCCCOc1ccc(S(=O)(=O)Nc2ccc(Oc3cccc(NCc4cccc(Cl)c4Cl)c3)cc2C(=O)O)cc1 [23:3, 2-(4-Butoxybenzenesulfonylamino)-5-[3-(2,3-dichlorobenzylamino)-phenoxy]benzoic acid] | 98% | 
11 | CCCCc1ccc(S(=O)(=O)Nc2ccc(Sc3ccc(NS(=O)(=O)c4ccc(CCCC)cc4)c(C(=O)O)c3)cc2)cc1 [14:3, 2-(4-butyl-benzenesulfonyl-amino)-5-[4-(4-butyl-benzen-sulfonylamino)phenyl-sulfanyl]benzoic acid] | 98% | 
12 | O=C(O)Cc1cc(Oc2ccc(NC(=O)c3ccc(C(F)(F)F)cc3F)cc2)ccc1NC(=O)c1cccc(Cl)c1 [17:1, {2-(3-chloro-benzoylamino)-5-[4-(2-fluoro-4-trifluoromethyl-benzoylamino)-phenoxy]-phenyl}-acetic acid] | 96% | 
13 | COc1ccc(C(=O)Nc2ccc(Oc3ccc(N(C)C(=O)c4ccc(C(C)(C)C)cc4)cc3)cc2C(=O)O)cc1 [9:2, 5-(4-((N-methyl)-4-tert-butylbenz-amido)phenoxy)-2-(4-methoxybenz-amido)benzoic acid] |  | 96%
14 | CCCCOc1ccc(S(=O)(=O)Nc2ccc(Oc3cccc(CC(=O)NS(=O)(=O)c4ccc(F)c(F)c4)c3)cc2C(=O)OC(C)(C)C)cc1 [26:3] |  | 95%
15 | O=C(O)c1cc(Oc2ccc(Nc3ccc4occc4c3)c(C(=O)O)c2)ccc1Nc1ccc(F)c(F)c1 [1:4, 5-[3-carboxy-4-(3,4-difluoro-phenylamino)phenyloxy]-2-(benzofuran-5-ylamino)benzoic acid] | 100% | 
16 | CCCCc1ccc(C(=O)Nc2ccc(Oc3ccc(NC(=O)c4ccccc4)c(C(=O)O)c3)cc2)cc1 [8:12, 2-benzoylamino-5-[4-(4-butyl-benzoylamino)phenoxy]-benzoic acid] | 99% | 
17 | O=C(O)c1cc(Oc2cccc(Oc3ccc(F)c(F)c3)c2)ccc1Nc1ccc(F)c(F)c1 [Example 28:3, 5-[3-(3,4-Difluoro-phenoxy)-phenoxy]-2-(3,4-difluoro-phenylamino)-benzoic acid] | 96% | 

Row | SMILES | inhibition at 10 µM | % inh.
18 | CN(c1cc(Oc2ccc(NS(=O)(=O)c3cccc(Cl)c3Cl)cc2)cc(C(=O)O)c1)c1ccc(F)c(F)c1 [18:1, 3-[4-(2,3-dichloro-benzenesulfonylamino)-phenoxy]-5-[(3,4-difluoro-phenyl)-methyl-amino]-benzoic acid] | 97% | 
19 | CCOc1c(Cl)cc(C(F)(F)F)cc1C(=O)Nc1ccc(Oc2ccc(NC(=O)c3ccc(OC(C)C)cc3)c(C(=O)O)c2)cc1CC(=O)O [6:7, 5-[3-carboxymethyl-4-(3-chloro-2-ethoxy-5-tri-fluoromethylbenzoyl-amino)phenoxy]-2-(4-isopropoxybenzoyl-amino)benzoic acid] | 100% | 
20 | COc1ccc(S(=O)(=O)Nc2ccc(Oc3ccc(N(C)C(=O)c4ccc(C(C)(C)C)cc4)cc3)cc2C(=O)O)cc1 [21:3, 5-{4-[(4-t-Butyl-benzoyl)-methyl-amino]-phenoxy}-2-(4-methoxy-benzenesulfonylamino)-benzoic acid] | 99% | 
21 | O=C(O)c1cc(Oc2ccc(NS(=O)(=O)c3ccc(OC(F)(F)F)cc3)cc2)ccc1NS(=O)(=O)c1ccc(OC(F)(F)F)cc1 [Example 30:3, 2-(4-Trifluoromethoxybenzenesulfonylamino)-5-[4-(4-trifluoromethoxybenzene-sulfonylamino)phenoxy]benzoic acid] | 100% | 
22 | CCCCOc1ccc(S(=O)(=O)Nc2ccc(Oc3cccc(C(=O)NS(=O)(=O)c4cccc(Cl)c4F)c3)cc2C(=O)O)cc1 [20:1, 2-(4-Butoxy-benzenesulfonylamino)-5-[3-(3-chloro-2-fluoro-benzene-sulfonylaminocarbonyl)-phenoxy]-benzoic acid] | 99% | 
23 | CCCCOc1ccc(S(=O)(=O)Nc2ccc(Oc3cccc(CC(=O)NS(=O)(=O)c4cccc(Cl)c4F)c3)cc2C(=O)O)cc1 [26:5, 2-(4-Butoxybenzenesulfonylamino)-5-{3-[2-(3-chloro-2-fluorobenzene-sulfonylamino)-2-oxoethyl]phenoxy}-benzoic acid] | 99% | 
24 | CCCCc1ccc(C(=O)Nc2ccc(Oc3ccc(NC(=O)c4ccc(Cl)cc4Cl)c(C(=O)O)c3)cc2C(=O)O)cc1 [2:5, 5-[3-carboxy-4-(4-chloro-6-chloro-benzamido)-phenyloxy]-2-(4-butylbenz-amido)benzoic acid] |  | 100%
25 | CCCCc1ccc(C(=O)Nc2ccc(Oc3ccc(NS(=O)(=O)c4ccccc4)c(C(=O)OC)c3)cc2C(=O)O)cc1 [Example 7:1, 2-(4-butylbenzamido)-5-(3-(methoxycarbonyl)-4-(phenylsulfonamido)-phenoxy)benzoic acid] | 95% | 
26 | O=C(O)c1cc(Sc2ccc(Nc3ccc(Cl)cc3)cc2)ccc1Nc1ccc(Cl)cc1 [Example 14:1, 2-(4-chlorophenylamino)-5-[4-(4-chlorophenylamino)-phenylsulfanyl]benzoic acid] | 98% | 
27 | O=C(Nc1ccc(Oc2ccc(NC(=O)c3ccc(OC(F)(F)F)cc3)c(C(=O)O)c2)cc1)c1ccccc1 [8:10, 5-(4-benzoylaminophenoxy)-2-(4-trifluoromethoxy-benzoylamino)benzoic acid] | 67% | 
28 | O=C(Nc1ccc(C(F)(F)F)cc1)Nc1ccc(Oc2ccc(S(=O)(=O)Nc3ccc(Cl)cc3)cc2)cc1C(=O)O [25:1, 5-[4-(4-Chlorophenylsulfamoyl)-phenoxy]-2-[3-(4-trifluoromethyl-phenyl)ureido]benzoic acid] | 98% | 
29 | CCCCOc1ccc(S(=O)(=O)Nc2ccc(Oc3ccc(N(C)C(=O)c4ccccc4)c(C(=O)O)c3)cc2)cc1 [11:9, 2-(benzoylmethylamino)-5-[4-(4-butoxybenzenesulfonylamino)-phenoxy]benzoic acid] | 89% | 
30 | CCCCc1ccc(S(=O)(=O)N(C)c2ccc(Oc3ccc(NC(=O)c4ccc(C)cc4)c(C(=O)O)c3)cc2)cc1 [11:5, 5-{4-[(4-butyl-benzenesulfonyl)-methylamino]phenoxy}-2-(4-methylbenzoylamino)benzoic acid] | 99% | 
31 | CCCCOc1ccc(S(=O)(=O)Nc2ccc(Oc3ccc(NC(=O)c4ccccc4)cc3)cc2/C=C/C(=O)O)cc1 [Example 22:1, (E)-3-[5-(4-Benzoylaminophenoxy)-2-(4-butoxybenzenesulfonylamino)-phenyl]acrylic acid] | 96% | 
32 | O=C(Nc1ccc(S(=O)(=O)c2ccc(NC(=O)c3cccc(Cl)c3)c(C(=O)O)c2)cc1C(=O)O)c1cccc(Cl)c1 [16:1, 2-(3-chlorobenzamido)-5-(4-(3-chlorobenzamido)-3-carboxyphenylsulfonyl)-benzoic acid] | 98% | 
33 | CCCCc1ccc(C(=O)Nc2ccc(Oc3ccc(NS(=O)(=O)c4ccc(S(C)(=O)=O)cc4)cc3)cc2C(=O)O)cc1 [11:8, 2-(4-butylbenzoylamino)-5-[4-(4-methanesulfonylbenzene-sulfonylamino)phenoxy]benzoic acid] | 98% | 
